These are literature values, as cited in US11582972B2, “Controlled-diffusion semiochemical composition” (MELCHIOR MATERIAL AND LIFE SCIENCE FRANCE, priority 2017, dated 2023).

The test system of this data set is Metamasius hemipterus sericeus. The following applies: for attractiveness: high doses: ethyl acetate >800 mg/d, ethyl propionate >300 mg/d, ethyl butyrate >100 mg/d.

The structures appear in SMILES notation.

For `CCOC(C)=O` [ethyl acetate], the attractiveness result is on record as “as attractive as 250 g of sugarcane”. For the same compound, the “synergistic effect with pheromones” value (dose >650 mg/d, in the field) is “synergistic effect with pheromones equivalent to 250 g of sugarcane”.
As for `CCCC(=O)OCC` [ethyl butyrate], the attractiveness result is “as attractive as 250 g of sugarcane”.
On to `CCOC(=O)CC` [ethyl propionate], for which the attractiveness entry was “as attractive as 250 g of sugarcane”.
